Data published in patent US9221875B2, “Amphiphilic peptides for treatment of keratitis” (Agency for Science, Technology and Research, priority 2013, dated 2015).
Values after ≈ are worked out from the molar mass of the structure shown. Where two headings read alike, the source gives them in different places. Marks after values point to notes of the source that are not given here. Peptide text beside a SMILES is read from it.

Tests used:
[1] = test system: 5 microorganisms tested (S. epidermidis, S. aureus, E. coli, P. aeruginosa, C. albicans); assay: Mean MIC over the panel and selectivity index (Example 1); assay type: cell-based
Description: Red blood cells suspension incubated with PBS was used as negative control.

[2] = Acute in vivo toxicity, intravenous tail vein injection; settings: mouse, mice
Description: For the β-sheet forming peptides to qualify as suitable therapeutic candidates, their antimicrobial activities should be considered in the light of their selectivity for microbial cell membranes so as to minimize toxicities towards mammalian cells. […] The selectivity indices (SIs) of the peptides were further evaluated as a comparison of the safety and efficacies of the different peptide sequences (Table 2). SIs of the various peptides were calculated as the ratio of the HC10 value (defined as the lowest peptide concentration that induces 10% or more haemolysis) to the GM (geometric mean MICs of the 5 microbial strains tested). […] The acute in vivo toxicity testing was performed via intravenous tail vein injection of solutions containing representative peptides of n=2 [(IRIK)2-NH2 (SEQ ID NO: 17)] and n=3 [(IRVK)3-NH2 (SEQ ID NO: 22)] repeat units in mice.

E. coli and S. aureus = assay: FE-SEM imaging of treated bacteria (Example 1); assay type: cell-based, Escherichia coli, Staphylococcus aureus; settings: 2 h treatment
Description: E. coli suspension at ˜3×10^8 CFU ml^−1 (100 μL) was incubated with an equal volume of broth containing 20% (by volume) of water and a lethal dose (250 mg L^−1) of a representative peptide in a 96 well-plate for 2 h. Eight replicates of each condition was pooled into a microfuge tube, pelleted down at 5000×g for 5 min, and rinsed twice with PBS. The samples were then fixed with 4% formaldehyde at room temperature for 15 min, followed by rinsing with DI water. Dehydration of the cells was performed using a series of graded ethanol solutions (35, 50, 75, 90, 95 and 100%). The samples were allowed to air-dry, mounted on carbon table, and sputter coated with platinum for imaging with a FE-SEM setup (JEOL JSM-7400F, Japan).

S. aureus biofilms [3] = assay type: cell-based, Staphylococcus aureus; settings: 24 h; for killing of S. aureus residing in biofilms: MIC, 4×MIC, 8×MIC
Description: The wells were then rinsed once with 100 μL of PBS to remove planktonic cells and loosely attached cells, and replenished with 100 μL of fresh broth. Biofilm formation was allowed to proceed up to 6-8 days with daily rinsing and media changes before use in experiments. […] Subsequently, the solutions were removed and 120 μL of activated XTT solution was added into each well. […] Relative cell viability was expressed as [(A490-[…])sample/(A490-[…])control]×100%.

S. aureus biofilms [4] = assay: Biofilm biomass, crystal violet staining; assay type: cell-based, Staphylococcus aureus; settings: MIC, 4×MIC, 8×MIC, 24 h
Description: The biomass of the biofilms was estimated by a crystal violet staining assay. Briefly, the formed biofilms were first treated with the peptides for 24 h as described above. After aspirating the culture medium, the biofilms were washed once with PBS, fixed with methanol for 15 min at room temperature and stained with 100 μL of 0.1% (weight by volume) crystal violet for 10 min. The excess crystal violet dye was removed by rinsing the wells with DI water for five times. The dye that is associated with the biofilm was extracted using 100 μL of 33% glacial acetic acid per well and quantified by measuring the absorbance at a wavelength of 570 nm using a microplate reader (TECAN, Switzerland). The relative amount of biomass remaining after peptide treatment was expressed as a percentage of the control treated with broth containing 10% (by volume) of water. Data represent mean±standard deviations of four replicates per concentration.

rabbit red blood cells = assay type: cell-based; settings: red cells of rabbit, 1 h
trypsin and proteinase K = assay type: in vitro ADME
Description: One of the major factors limiting the clinical utility of AMPs lies in their instability to rapid degradation by proteases which are present abundantly in biological fluids and/or secreted by microorganisms. In order to evaluate the proteolytic stability of the designed β-sheet forming peptides, the D- and L-isoforms of the n=2 peptide sequence (IK8-all D or IK8-all L, respectively) were treated with the broad spectrum serine proteases, trypsin and proteinase K, for 6 h and evaluated their antimicrobial activities against S. aureus, E. coli and P. aeruginosa. […] The structural integrity of synthetic peptides following treatment with both proteases was also evaluated using MALDI-TOF mass spectroscopy. […] The cleavage sites of both enzymes for the IK8-all L peptide are illustrated in FIG. 19a with the mass spectra peaks assigned to the major fragments.

P. aeruginosa [5] = assay: MBC against clinical isolates; assay type: cell-based; settings: clinical isolate
C. neoformans = assay: MBC against clinical isolates; assay type: cell-based; settings: clinical isolate
F. solani = assay type: cell-based; settings: 24 h
Description: The MICs of peptides were determined against the fungi C. albicans (American Type Culture Collection, ATCC) and F. solani (ATCC) by the broth microdilution method. […] F. solani, were cultured on sabouraud dextrose agar plates in incubator at 37° C. To collect conidia following incubation, conidia of F. solani species were harvested and standardized to 1×10^8 spores/ml before performing the experiments. Sabouraud dextrose broth (90 μL) was added to the wells of culture plates. […] The plates were incubated at 37° C. and examined macroscopically after 24 h for the growth of F. solani. Appropriate control wells without any treatment were included in the study. Peptide were considered to be active if the wells appeared clear without any visible growth of F. solani, and the results were expressed as MIC. The assay was performed in four replicates for each concentration.

S. epidermidis [6] = settings: 18 h
S. aureus [7] = settings: 18 h
E. coli [8] = settings: 18 h
P. aeruginosa [9] = settings: 18 h
C. albicans [10] = settings: 42 h
S. epidermidis [11] = settings: 18 h; remark: listed apart in the source
S. aureus [12] = settings: 18 h; remark: listed apart in the source
E. coli [13] = settings: 18 h; remark: listed apart in the source
P. aeruginosa [14] = settings: 18 h; remark: listed apart in the source
C. albicans [15] = test system: C. albicans
[16] = test system: Methicillin-resistant S. aureus; settings: clinical isolate
[17] = test system: Vancomycin-resistant Enterococci; settings: clinical isolate
[18] = test system: 5 microorganisms tested (S. epidermidis, S. aureus, E. coli, P. aeruginosa, C. albicans); assay: Mean MIC over the panel and selectivity index (Example 2)
C. albicans keratitis = assay: Contact lens-associated C. albicans keratitis mouse model
[19] = test system: LPS-stimulated NO production in NR8383 rat macrophage cell line; assay: Endotoxin neutralization assay (Griess nitrite); assay type: cell-based; settings: 125 mg L^−1 peptide, 100 ng mL^−1 LPS, 18 h
Description: Untreated cells and cells that were stimulated with LPS alone served as the […] controls, respectively. The amount of NO produced was estimated by quantifying the concentration of the stable NO metabolite nitrite in the isolated supernatant fractions using the Griess reagent (1% sulphanilamide, 0.1% N-1-napthylethylenediamine dihydrochloride, 5% phosphoric acid) according to the manufacturer's protocol. The absorbance was measured at 540 nm and nitrite concentrations were determined using a standard reference curve prepared from known concentrations of NaNO2 solutions.

[20] = test system: clinically isolated Mycobacterium tuberculosis
S. aureus [21] = assay type: cell-based, Staphylococcus aureus; settings: passage 20
[22] = topical eye drops, peptides 3000 mg/L, amphotericin B 1000 mg/L

Compound	GM, geometric mean of MIC values for the 5 microorganisms tested [1] [mg/L]	LD50 [2] [mg/kg]	surface morphology under FE-SEM (E. coli and S. aureus)	killing of S. aureus residing in biofilms (S. aureus biofilms [3])	amount of biomass in the treated biofilms (S. aureus biofilms [4])	HC10, haemolysis concentration 10%: lowest peptide concentration that induces ≧10% haemolysis (rabbit red blood cells)	MBC P. aeruginosa (P. aeruginosa [5]) [mg/L]	MBC C. neoformans (C. neoformans) [mg/L]	MIC S. epidermidis (S. epidermidis [6]) [mg/L]	MIC S. aureus (S. aureus [7]) [mg/L]	MIC E. coli (E. coli [8]) [mg/L]	MIC P. aeruginosa (P. aeruginosa [9]) [mg/L]	MIC C. albicans (C. albicans [10]) [mg/L]	MIC S. epidermidis (S. epidermidis [11]) [mg/L]	MIC S. aureus (S. aureus [12]) [mg/L]	MIC E. coli (E. coli [13]) [mg/L]	MIC P aeruginosa (P. aeruginosa [14]) [mg/L]	MIC C. albicans (C. albicans [15]) [mg/L]	MBC Methicillin-resistant S. aureus [16] [mg/L]	MBC Vancomycin-resistant Enterococci [17] [mg/L]	other results
CC[C@H](C)[C@H](N)C(=O)N[C@@H](CCCNC(=N)N)C(=O)N[C@H](C(=O)N[C@@H](CCCCN)C(=O)N[C@H](C(=O)N[C@@H](CCCNC(=N)N)C(=O)N[C@H](C(=O)N[C@@H](CCCCN)C(N)=O)[C@@H](C)CC)[C@@H](C)CC)[C@@H](C)CC [(IRIK)2-NH2] (H-IRIKIRIK-NH2; N-terminus assumed)	23.4	35.2	rough and uneven	dose-dependent killing	reduced in a dose-dependent manner	2000 mg/L	7.8 (≈ 7.51 µM)	7.8 (≈ 7.51 µM)	3.9 (≈ 3.76 µM)	62.5 (≈ 60.2 µM)	15.6 (≈ 15 µM)	31.3 (≈ 30.1 µM)	3.9 (≈ 3.76 µM)	3.9 (≈ 3.76 µM)	62.5 (≈ 60.2 µM)	15.6 (≈ 15 µM)	31.3 (≈ 30.1 µM)	3.9 (≈ 3.76 µM)	31.3 (≈ 30.1 µM)	15.6 (≈ 15 µM)	cell viability of S. aureus in biofilms (S. aureus biofilms [3]; Staphylococcus aureus, 4 ×MIC): less than 10%; antimicrobial activity after protease treatment (trypsin and proteinase K): complete loss in bacterial inhibitory activities; structural integrity after protease treatment, MALDI-TOF MS (trypsin and proteinase K): degradation of the intact peptide; MIC F. solani (F. solani): 31.3 mg/L (≈ 30.1 µM); MBC A. baumanni (A. baumanni): 125 mg/L (≈ 120 µM); GM, geometric mean of MIC values for the 5 microorganisms tested [18]: 23.4 mg/L; fungal cells eradicated from the biofilms compared to the untreated control group (C. albicans keratitis; C. albicans counts in mice cornea, agar plating): ~90%; depth of hyphal invasion into the cornea, PAS histology (C. albicans keratitis; [22]): reduced the maximal depth of hyphal invasion; resolution of the keratitis infection (eye appearance) (C. albicans keratitis; [22]): significant resolution of the keratitis infection; clinical scores of mice corneas (slit lamp) (C. albicans keratitis; topical eye drops, peptides 3000 mg/L, amphotericin B 1000 mg/L, P<0.01): significantly lower than that in the control group
CC[C@H](C)[C@H](N)C(=O)N[C@@H](CCCNC(=N)N)C(=O)N[C@H](C(=O)N[C@@H](CCCCN)C(=O)N[C@H](C(=O)N[C@@H](CCCNC(=N)N)C(=O)N[C@H](C(=O)N[C@@H](CCCCN)C(=O)N[C@H](C(=O)N[C@@H](CCCNC(=N)N)C(=O)N[C@H](C(=O)N[C@@H](CCCCN)C(N)=O)C(C)C)[C@@H](C)CC)C(C)C)[C@@H](C)CC)C(C)C [(IRVK)3-NH2] (H-IRVKIRVKIRVK-NH2; N-terminus assumed)	47.3	35.2	rough and uneven	dose-dependent killing	reduced in a dose-dependent manner	>125^e) mg L^−1	15.6 (≈ 10.4 µM)	15.6 (≈ 10.4 µM)	2.0 (≈ 1.33 µM)	31.3 (≈ 20.8 µM)	15.6 (≈ 10.4 µM)	62.5 (≈ 41.5 µM)	125 (≈ 82.9 µM)	2.0 (≈ 1.33 µM)	31.3 (≈ 20.8 µM)	15.6 (≈ 10.4 µM)	62.5 (≈ 41.5 µM)	125 (≈ 82.9 µM)	15.6 (≈ 10.4 µM)	7.8 (≈ 5.18 µM)	nitrite concentration, LPS-stimulated NO production [19]: reduced to the control level; MBC A. baumanni (A. baumanni; clinical isolate, multidrug resistant): 15.6 mg/L (≈ 10.4 µM); MIC M. tuberculosis ([20]; strain number 1140): 15.6 mg/L (≈ 10.4 µM); MIC M. tuberculosis ([20]; strain number 1146): >31.3 mg/L; GM, geometric mean of MIC values for the 5 microorganisms tested [18]: 47.3 mg/L
CC1(C)S[C@@H]2[C@H](NC(=O)Cc3ccccc3)C(=O)N2[C@H]1C(=O)O [penicillin G, reference compound]																					MICn/MIC0, fold increase in MIC (S. aureus [21]): 32
